Assay results published in PubChem BioAssay AID248 (DTP/NCI, 2004).
“And” between values parts separate entries of the source, which are not always exact repeats. Equal values may be shown once. Toxic doses and inconclusive results are not listed. Cut-off read from the data, not from the text of the source: active = T/C of 150% or more; inactive = T/C below 125%. Square brackets hold non-standard residues; d marks the D form. Peptide text beside a SMILES is read from it. * marks the point of attachment. ξ: configuration not given here. ξD = NC(CC(=O)O)C(=O)O; For = O=C*

System: L1210 leukemia ip in BDF1 mice, survival T/C
Assay: NCI In Vivo Anticancer Drug Screen. Data for tumor model L1210 Leukemia (intraperitoneal) in B6D2F1 (BDF1) mice
Conditions: higher = longer survival
How it was run: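 Survival endpoint. Drug-treated group vs vehicle group, expressed as T divided by C. Tumor passaged by transplantation.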

[1] = endpoint: mean survival time, dose: 100.0 mg/kg/injection, schedule: Q01DX009 (ip), vehicle: Klucel (hydroxypropylcellulose) (HPC)
[2] = endpoint: mean survival time, dose: 200.0 mg/kg/injection, schedule: Q01DX009 (ip), vehicle: Klucel (hydroxypropylcellulose) (HPC)
[3] = endpoint: mean survival time, dose: 400.0 mg/kg/injection, schedule: Q01DX009 (ip), vehicle: Klucel (hydroxypropylcellulose) (HPC)
[4] = endpoint: mean survival time, dose: 100.0 mg/kg/injection, schedule: Q04DX003 (ip), vehicle: Klucel (hydroxypropylcellulose) (HPC)
[5] = endpoint: mean survival time, dose: 200.0 mg/kg/injection, schedule: Q04DX003 (ip), vehicle: Klucel (hydroxypropylcellulose) (HPC)
[6] = endpoint: mean survival time, dose: 400.0 mg/kg/injection, schedule: Q04DX003 (ip), vehicle: Klucel (hydroxypropylcellulose) (HPC)
[7] = endpoint: mean survival time, dose: 100.0 mg/kg/injection, schedule: Q01DX001 (ip), vehicle: saline
[8] = endpoint: mean survival time, dose: 200.0 mg/kg/injection, schedule: Q01DX001 (ip), vehicle: saline
[9] = endpoint: mean survival time, dose: 400.0 mg/kg/injection, schedule: Q01DX001 (ip), vehicle: saline
[10] = endpoint: mean survival time, dose: 100.0 mg/kg/injection, schedule: Q01DX009 (ip), vehicle: saline with Tween-80
[11] = endpoint: mean survival time, dose: 100.0 mg/kg/injection, schedule: Q04DX003 (ip), vehicle: saline with Tween-80
[12] = endpoint: mean survival time, dose: 200.0 mg/kg/injection, schedule: Q01DX009 (ip), vehicle: saline with Tween-80
[13] = endpoint: mean survival time, dose: 200.0 mg/kg/injection, schedule: Q04DX003 (ip), vehicle: saline with Tween-80
[14] = endpoint: mean survival time, dose: 400.0 mg/kg/injection, schedule: Q01DX009 (ip), vehicle: saline with Tween-80
[15] = endpoint: mean survival time, dose: 400.0 mg/kg/injection, schedule: Q04DX003 (ip), vehicle: saline with Tween-80
[16] = endpoint: mean survival time, dose: 100.0 mg/kg/injection, schedule: Q04DX002 (ip), vehicle: Klucel (hydroxypropylcellulose) (HPC)
[17] = endpoint: mean survival time, dose: 200.0 mg/kg/injection, schedule: Q04DX002 (ip), vehicle: Klucel (hydroxypropylcellulose) (HPC)
[18] = endpoint: mean survival time, dose: 100.0 mg/kg/injection, schedule: Q04DX003 (ip), vehicle: saline
[19] = endpoint: mean survival time, dose: 200.0 mg/kg/injection, schedule: Q04DX003 (ip), vehicle: saline
[20] = endpoint: mean survival time, dose: 400.0 mg/kg/injection, schedule: Q04DX003 (ip), vehicle: saline
[21] = endpoint: mean survival time, dose: 400.0 mg/kg/injection, schedule: Q04DX002 (ip), vehicle: Klucel (hydroxypropylcellulose) (HPC)

Measured: T/C

Clc1ccc(C2CC3(CC(c4ccc(Cl)cc4)N2)SSC2(CC(c4ccc(Cl)cc4)NC(c4ccc(Cl)cc4)C2)S3)cc1 (stereo not given)
inactive: [1] 98 % of control | [2] 108 % of control | [3] 98 % of control

O=S(=O)(O)CC(NCc1ccccc1)c1ccccc1 (stereo not given)
inactive: endpoint: mean survival time, dose: 100.0 mg/kg/injection, schedule: Q04DX003 (ip), vehicle: other 100 % of control | endpoint: mean survival time, dose: 200.0 mg/kg/injection, schedule: Q04DX003 (ip), vehicle: other 97 % of control | endpoint: mean survival time, dose: 400.0 mg/kg/injection, schedule: Q04DX003 (ip), vehicle: other 94 % of control

CCCNC(=O)OC/C=C\CC(Cl)(Cl)Cl
inactive: endpoint: mean survival time, dose: 50.0 mg/kg/injection, schedule: Q01DX009 (ip), vehicle: Klucel (hydroxypropylcellulose) (HPC) 97 % of control | [1] 96 % of control | [4] 87 % of control | [2] 94 % of control | [5] 94 % of control | [6] 86 % of control

COc1ccc(/C=C(\NC(C)=O)C(=O)O)cc1
inactive: [1] 104 % of control | [4] 100 % of control | [2] 97 % of control | [5] 100 % of control | [3] 98 % of control | [6] 112 % of control

CCOC(=O)c1cnc(SC)nc1Nc1cccc([N+](=O)[O-])c1
inactive: [1] 110 % of control | [4] 97 % of control | [2] 97 % of control | [5] 98 % of control | [3] 95 % of control | [6] 95 % of control

CCc1ccc(NS(=O)(=O)c2ccc3ccccc3c2)cc1
inactive: [1] 107 % of control | [2] 107 % of control | [3] 98 % of control

CSc1nc(N)nc2nc(C)c(C)cc12
inactive: endpoint: mean survival time, dose: 100.0 mg/kg/injection, schedule: Q01DX Z (ip), vehicle: methylcellulose (MC) 90 % of control | endpoint: mean survival time, dose: 200.0 mg/kg/injection, schedule: Q01DX Z (ip), vehicle: methylcellulose (MC) 89 % of control

Oc1ccc(Cl)cc1/C=N/NC(=S)Nc1cccc2cccnc12
inactive: [7] 111 % of control | [8] 100 % of control | [9] 91 % of control

COC(=O)C(CC(C)C)NC(=O)C(Cc1ccc(O)cc1)NC=O (stereo not drawn) (For-Tyr-Leu-OMe; configuration not given here)
inactive: [10] 94 % of control | [11] 110 % of control | [12] 95 % of control | [13] 102 % of control | [14] 92 % of control | [15] 96 % of control

NC(CC(=O)O)C(=O)NCC(=O)O (stereo not given) (H-[ξD]-Gly-OH)
inactive: endpoint: mean survival time, dose: 12.5 mg/kg/injection, schedule: Q04DX002 (ip), vehicle: Klucel (hydroxypropylcellulose) (HPC) 98 % of control | endpoint: mean survival time, dose: 25.0 mg/kg/injection, schedule: Q04DX002 (ip), vehicle: Klucel (hydroxypropylcellulose) (HPC) 94 % of control | endpoint: mean survival time, dose: 50.0 mg/kg/injection, schedule: Q04DX002 (ip), vehicle: Klucel (hydroxypropylcellulose) (HPC) 94 % of control | [16] 117 % of control

CN1CCN(CCCN2c3ccccc3Sc3ccc(Cl)cc32)CC1
inactive: [16] 104 % of control | [17] 90 % of control | endpoint: median survival time, dose: 6.25 mg/kg/injection, schedule: Q06HX032 (oral), vehicle: Klucel (hydroxypropylcellulose) (HPC) 97 % of control | endpoint: median survival time, dose: 6.25 mg/kg/injection, schedule: Q06HX044 (oral), vehicle: Klucel (hydroxypropylcellulose) (HPC) 91 % of control | endpoint: median survival time, dose: 12.5 mg/kg/injection, schedule: Q06HX032 (oral), vehicle: Klucel (hydroxypropylcellulose) (HPC) 98 % of control and 107 % of control | endpoint: median survival time, dose: 12.5 mg/kg/injection, schedule: Q06HX044 (oral), vehicle: Klucel (hydroxypropylcellulose) (HPC) 95 % of control and 96 % of control | endpoint: median survival time, dose: 25.0 mg/kg/injection, schedule: Q06HX032 (oral), vehicle: Klucel (hydroxypropylcellulose) (HPC) 97 % of control and 116 % of control | endpoint: median survival time, dose: 25.0 mg/kg/injection, schedule: Q06HX044 (oral), vehicle: Klucel (hydroxypropylcellulose) (HPC) 101 % of control and 76 % of control | endpoint: median survival time, dose: 50.0 mg/kg/injection, schedule: Q06HX032 (oral), vehicle: Klucel (hydroxypropylcellulose) (HPC) 57 % of control and 69 % of control | endpoint: median survival time, dose: 50.0 mg/kg/injection, schedule: Q06HX044 (oral), vehicle: Klucel (hydroxypropylcellulose) (HPC) 93 % of control and 35 % of control

NC1=NC2OC(CO)C(O)C2O1 (stereo not given)
inactive: endpoint: mean survival time, dose: 100.0 mg/kg/injection, schedule: Q01DX009 (ip), vehicle: saline 104 % of control | [4] 100 % of control | endpoint: mean survival time, dose: 200.0 mg/kg/injection, schedule: Q01DX009 (ip), vehicle: saline 95 % of control | [5] 95 % of control | endpoint: mean survival time, dose: 400.0 mg/kg/injection, schedule: Q01DX009 (ip), vehicle: saline 101 % of control | [6] 97 % of control

O=S(=O)(O)Cc1ccccc1O
inactive: [10] 96 % of control | [12] 102 % of control | [14] 93 % of control

CC/C(=N/O)c1ccccc1
inactive: endpoint: mean survival time, dose: 100.0 mg/kg/injection, schedule: Q04DX003 (ip), vehicle: saline sonified 110 % of control | endpoint: mean survival time, dose: 200.0 mg/kg/injection, schedule: Q04DX003 (ip), vehicle: saline sonified 95 % of control | endpoint: mean survival time, dose: 400.0 mg/kg/injection, schedule: Q04DX003 (ip), vehicle: saline sonified 93 % of control

Cc1ccc(NCc2ccc(N(C)C)cc2)cc1
inactive: [4] 99 % of control | [5] 91 % of control | [6] 93 % of control

Nc1c(Cl)ncnc1Nc1ccc(O)cc1
inactive: endpoint: mean survival time, dose: 25.0 mg/kg/injection, schedule: Q04DX003 (ip), vehicle: Klucel (hydroxypropylcellulose) (HPC) 96 % of control | endpoint: mean survival time, dose: 50.0 mg/kg/injection, schedule: Q04DX003 (ip), vehicle: Klucel (hydroxypropylcellulose) (HPC) 96 % of control | [4] 101 % of control

CC(C)(C)C1=CC(=O)C=C(C(C)(C)C)C1=O
inactive: endpoint: mean survival time, dose: 100.0 mg/kg/injection, schedule: Q01DX001 (ip), vehicle: Klucel (hydroxypropylcellulose) (HPC) 89 % of control | endpoint: mean survival time, dose: 200.0 mg/kg/injection, schedule: Q01DX001 (ip), vehicle: Klucel (hydroxypropylcellulose) (HPC) 92 % of control | [5] 87 % of control | endpoint: mean survival time, dose: 400.0 mg/kg/injection, schedule: Q01DX001 (ip), vehicle: Klucel (hydroxypropylcellulose) (HPC) 100 % of control | [6] 89 % of control

Nc1cccc2c1C(O)c1ccccc1-2 (stereo not given)
inactive: [11] 101 % of control | [13] 97 % of control | [15] 101 % of control

Cc1cc[n+]2n1CC(O)C2 (stereo not given)
inactive: endpoint: mean survival time, dose: 50.0 mg/kg/injection, schedule: Q01DX001 (ip), vehicle: saline 102 % of control | [7] 100 % of control | [8] 96 % of control | [9] 102 % of control

O=C(O)c1cccc(C(=O)Oc2ccccc2-c2ccccc2)c1
inactive: endpoint: mean survival time, dose: 50.0 mg/kg/injection, schedule: Q01DX009 (ip), vehicle: saline with Tween-80 94 % of control | [10] 87 % of control | [12] 94 % of control

Cc1ccnc(NC(=O)Nc2ccccc2F)c1
inactive: [7] 97 % of control and 106 % of control | [10] 92 % of control | [18] 95 % of control | [8] 101 % of control | [12] 96 % of control | [19] 101 % of control | [9] 97 % of control and 88 % of control | [14] 91 % of control | [20] 101 % of control

CN(C)c1ccc(SSc2ccc(N(C)C)cc2)cc1
inactive: [7] 104 % of control | [16] 98 % of control | [8] 93 % of control | [17] 102 % of control | [9] 98 % of control | [21] 91 % of control

O=C(O)C1CCCN1O (stereo not given)
inactive: [7] 104 % of control | [8] 98 % of control | [9] 98 % of control

CCOC(=O)CNc1ccc(F)cc1Cl
inactive: [16] 105 % of control | [17] 101 % of control | [21] 105 % of control

O=C1NCN(CCO)CN1
inactive: [18] 95 % of control | [19] 91 % of control | [20] 98 % of control

CC1=Nc2ccccc2NC(C)(C)C1
inactive: endpoint: mean survival time, dose: 100.0 mg/kg/injection, schedule: Q04DX002 (ip), vehicle: saline 102 % of control | [4] 100 % of control | endpoint: mean survival time, dose: 200.0 mg/kg/injection, schedule: Q04DX002 (ip), vehicle: saline 102 % of control | [5] 98 % of control | [6] 98 % of control

Cc1ccc([N+](=O)[O-])cc1
inactive: [16] 103 % of control | [17] 103 % of control | [21] 95 % of control

Nc1ncnc2c1ncn2CCCN1C(=O)c2ccccc2C1=O
inactive: [11] 96 % of control | [13] 93 % of control | [15] 89 % of control
